The text below walks through data of patent publication US20260176284A1, “Compounds with Anti-KRAS Mutated Tumor Activity” (Trasveda Ltd., priority 2022, published 2026).

In series [1] the test system is KRAS-G12D mutated human colon carcinoma cells GP2d. The series can be described thus: Antitumor effect, subcutaneous xenograft of KRAS-G12D mutated human colon carcinoma cells GP2d. Type of series: in vivo. The settings on record: BALB/c nude mice, 10 mg/kg, gavage, twice a day; for TGI (%): Day 21. As to the method: GP2d cells were purchased from Nanjing Kebai Biotechnology Co., Ltd. BALB/c nude mice, female, were purchased from Jiangsu GemPharmatech LLC. GP2d cells were cultured in culture medium containing DMEM and 10% FBS. The cells in the logarithmic growth phase were collected and resuspended in PBS to an appropriate concentration for subcutaneous tumor inoculation in mice. The experimental mice were subcutaneously inoculated on the right posterior side of the back. The inoculation dose of GP2d cells was 1×10^7 cells per mouse, and the cells were resuspended in a 1:1 mixture of PBS and Matrigel (the inoculation volume was 0.1 mL). When the average tumor volume grew to 150 mm^3, the mice were randomly grouped for administration according to the tumor size and body weight. Administration was started immediately after grouping, and the day of administration was regarded as day 0. The administration was carried out twice a day by gavage, at a dose of 10 mg/kg or a solvent control (0.5% Tween 80+99.5% of (0.5% MC (400 cp))). During the experiment, the body weight of the mice and the size of the tumors were measured twice a week.
The formula for calculating the tumor size: Tumor volume (mm^3)=0.5×(long diameter of tumor×(short diameter of tumor)^2).
Relative tumor inhibition rate TGI (%): TGI %=[1−(average tumor volume at the end of administration of the treatment group−average tumor volume at the beginning of administration of the treatment group)/(average tumor volume at the end of administration of the vehicle control group −average tumor volume at the beginning of administration of the vehicle control group)]×100%.

The subject of series [2] is KRAS G12D mutated AGS human gastric adenocarcinoma cells. The series can be described thus: Proliferation inhibition of KRAS G12D mutant AGS cells, another experiment with similar protocol (includes MRTX1133). Type of series: cell-based. The settings on record: Homo sapiens. As to the method:
In another experiment, using a protocol similar to the one described above, the inhibitory activity of some representative compounds of the present invention against KRAS G12D mutated AGS human gastric adenocarcinoma cells was determined.
The synthesis of compound MRTX1133 was performed according to the method described in J. Med. Chem. 2022, 65, 4, 3123-3133.

The subject of series [3] is human pancreatic cancer cells HPAC (carrying KRas G12D mutant protein). The series can be described thus: In vivo pharmacodynamics, subcutaneous xenograft of human pancreatic cancer cells HPAC. The conditions noted are these: NOD/SCID mice, 50 mpk, PO; for Tumor volume (mm3) (Day 20): BID × 21; for TGI (%): BID × 21, Day 20. As to the method:
The following materials were used in this experiment: NOD/SCID mice, 6-8 weeks old, female, Jiangsu Ji Cai Yao Kang Biotechnology Co., Ltd.; HPAC cells (carrying KRas G12D mutant protein, ATCC); Captisol (Wuhan Fengyao Tonghui Chemical Products Co., Ltd., Cas #182410-00-0); Sodium acetate (aladdin); MC (sigma, 9004-67-5).
The experiment was carried out as follows: Female NOD/SCID mice aged 6-8 weeks were subcutaneously inoculated with 1-10^7 HPAC cells on the right posterior side of the back, with an inoculation volume of 0.1 mL. When the tumors grew to an average volume of 150 mm^3, the mice were randomly grouped for administration according to the tumor size and body weight. The day of administration was regarded as day 0. The administration was carried out once a day. The test compound was administered by tail vein injection or gavage, with 5 mice in each group at a dose of 10 mg/kg. The control group was administered with an equal volume of the solvent control by tail vein injection or gavage.
During the experiment, the tumor volume and body weight were measured twice a week. The formula for calculating the tumor volume was: Tumor volume (mm^3)=0.5×(tumor major axis×tumor minor axis^2). The average tumor inhibition rate TGI %=[(average tumor volume of the control group−average initial tumor volume of the control group)−(average tumor volume of the administration group−average initial tumor volume of the administration group)]/(average tumor volume of the control group−average initial tumor volume of the control group).

A short description of series [4]: Mouse pharmacokinetics (IV and PO). The class given is in vivo. The conditions noted are these: 10 mg/kg, male CD-1 mice, PO (gavage), 1 mg/mL at 10 mL/kg, plasma. As for the experimental part: The pharmacokinetic properties of the compounds of the present invention were evaluated through a mouse pharmacokinetic experiment.
Male CD-1 mice, aged 6-8 weeks old, were purchased from Zhejiang Vital River Laboratory Animal Co., Ltd.
IV administration group: The compound was formulated into a sodium acetate buffer solution (10 mM sodium acetate solution, adjusted to pH 4.0 with acetic acid) containing 20% Captisol (sulfobutyl β-cyclodextrin) so that the final concentration of each compound was 0.6 mg/mL. The drug formulation was injected into the tail vein of CD-1 mice at an injection volume of 5 mL/kg. After administration, blood samples were collected from the submandibular vein or by other appropriate methods at 5 min, 15 min, 30 min, 1 h, 2 h, 4 h, 6 h, 8 h, and 24 h. The blood samples were centrifuged at a low temperature for 6 minutes, and the plasma was collected and stored at −80° C. for testing. The PO administration group formulated the compound into a solvent of 0.5% Tween 80+99.5% (0.5% MC (400 cp)) or 5% DMSO+95% (0.5% MC (400 cp)) so that the final concentration of each compound was 1 mg/mL. The drug formulation was administered to CD-1 mice by gavage at a volume of 10 mL/kg. After administration, blood samples were collected from the submandibular vein or by other appropriate methods at 15 min, 30 min, 1 h, 2 h, 4 h, 6 h, 8 h, and 24 h. The blood samples were centrifuged at a low temperature for 6 minutes, and the plasma was collected and stored at −80° C. for testing.
10 μL of the plasma sample was taken, and 200 μL of methanol containing an internal standard was added as a precipitating agent to precipitate plasma proteins and extract the compounds to be tested in the plasma. After centrifugation at a low temperature, 10 μL of the supernatant was injected, and the drug blood concentration was analyzed by LC-MS/MS. The pharmacokinetic parameters were calculated using Winnonlin based on the drug concentration data at different time points.

SMILES strings stand for the structures.

As to `C#Cc1c(F)ccc2cc(O)cc(-c3nc(C#C)c4c(N5CC6CCC(C5)N6)nc(OC[C@]5(C)CN(C)CC/C5=C\F)nc4c3F)c12` [Example 332], in series [1], the “Tumor volume (mm3) (Day 21)” value came out at 419 mm3 and the “TGI (%)” value was 70%. The molecule also displayed an IC50 in series [2] of 1 nM.
Consider `C#Cc1c(F)ccc2cc(O)cc(-c3c(F)cc4c(N5CC6CCC(C5)N6)nc(OC[C@]5(C)CN(C)CC/C5=C\F)nc4c3F)c12` (atropisomer, axis not shown; (Ra)) [Example 77, (Ra)-4-(4-((1R,5S)-3,8-diazabicyclo[3.2.1]octan-3-yl)-6,8-difluoro-2-(((S,E) 4-(fluoromethylene)-1,3-dimethylpiperidin-3-yl)methoxy)quinazolin-7-yl)-5-ethynyl-6-fluoronaphthalen-2-ol], for which, in series [3], the “Tumor volume (mm3) (Day 20)” value was determined as 255 mm3 and the “TGI (%)” value was determined as 83%. Besides, the IC50 in series [2] turned out to be 4 nM.
In the case of `CN1CC/C(=C\F)[C@](C)(COc2nc(N3CC4CCC(C3)N4)c3cc(Cl)c(-c4cccc5sc(N)c(C#N)c45)c(F)c3n2)C1` (single isomer, unassigned) [Example 313-1], in series [1], the “Tumor volume (mm3) (Day 21)” value was determined as 256 mm3 and the “TGI (%)” value was 88%.
Take `[2H]C([2H])([2H])N1CC[C@H](C(F)F)[C@](C)(C([2H])([2H])Oc2nc(N3CC4CCC(C3)N4)c3cc(Cl)c(-c4cccc5sc(N)c(C#N)c45)c(F)c3n2)C1` (single isomer, unassigned) [Example 315-1]: in series [1], the “Tumor volume (mm3) (Day 21)” value stood at 325 mm3 and the “TGI (%)” value worked out at 80%.
As for `C#Cc1c(F)ccc2cc(O)cc(-c3ncc4c(N5C[C@H]6CC[C@@H](C5)N6)nc(OC[C@]5(C)CN(C)CC[C@@H]5C(F)F)nc4c3F)c12` [Example 105, 4-(4-((1R,5S)-3,8-diazabicyclo[3.2.1]octan-3-yl)-2-(((3S,4S)-4-(difluoromethyl)-1,3-dimethylpiperidin-3-yl)methoxy)-8-fluoropyrido[4,3-d]pyrimidin-7-yl)-5-ethynyl-6-fluoronaphthalen-2-ol], in series [3], the “Tumor volume (mm3) (Day 20)” value came out at 122 mm3 and the “TGI (%)” value was 104%. The same molecule gave an IC50 in series [2] of 6 nM.
Consider `C#Cc1c(F)ccc2cc(O)cc(-c3nc(OC)c4c(N5C[C@H]6CC[C@@H](C5)N6)nc(OC[C@]5(C)CN(C)CC[C@@H]5C(F)F)nc4c3F)c12` [Example 261, 4-(4-((1R,5S)-3,8-diazabicyclo[3.2.1]octan-3-yl)-2-(((3S,4S)-4-(difluoromethyl)-1,3-dimethylpiperidin-3-yl)methoxy)-8-fluoro-5-methoxypyrido[4,3-d]pyrimidin-7-yl)-5-ethynyl-6-fluoronaphthalen-2-ol], for which, in series [3], the “Tumor volume (mm3) (Day 20)” value is 117 mm3 and the “TGI (%)” value is recorded as 105%. This molecule displayed an IC50 in series [2] of 2 nM.
As for `[2H]C([2H])([2H])N1CC/C(=C\F)[C@](C)(C([2H])([2H])Oc2nc(N3C[C@H]4CC[C@@H](C3)N4)c3cnc(-c4cc(O)cc5ccc(F)c(C#C)c45)c(F)c3n2)C1` [Example 304, 4-(4-((1R,5S)-3,8-diazabicyclo[3.2.1]octan-3-yl)-8-fluoro-2-(((S,E)-4-(fluoromethylene)-3-methyl-1-(methyl-d3)piperidin-3-yl)methoxy-d2)pyrido[4,3-d]pyrimidin-7-yl)-5-ethynyl-6-fluoronaphthalen-2-ol], in series [4], the AUC(0-inf) amounted to 1500 ng·h/mL, the AUC(0-t) was determined as 1420 ng·h/mL and the half-life is 8.74 h. For the same molecule, the IC50 in series [2] was found to be 2 nM.
Take `C#Cc1c(F)ccc2cc(O)cc(-c3c(F)cc4c(N5CC6CCC(C5)N6)nc(OC[C@]5(C)CN(C)CC[C@@H]5C(F)F)nc4c3F)c12` (atropisomer, axis not shown; (Ra)) [Example 46-3, (Ra)-4-(4-((1R,5S)-3,8-diazabicyclo[3.2.1]octan-3-yl)-2-(((3S,4S)-4-(difluoromethyl)-1,3-dimethylpiperidin-3-yl)methoxy)-6,8-difluoroquinazolin-7-yl)-5-ethynyl-6-fluoronaphthalen-2-ol]: in series [3], the “Tumor volume (mm3) (Day 20)” value was 135 mm3 and the “TGI (%)” value is recorded as 102%. Besides, in series [4], the AUC(0-inf) was 414 ng·h/mL, the AUC(0-t) was 384 ng·h/mL and the half-life is 10.8 h. This molecule registered an IC50 in series [2] of 7 nM.
Turning to `CN1CC[C@H](C(F)F)[C@](C)(COc2nc(N3CC4CCC(C3)N4)c3cc(Cl)c(-c4c(F)ccc5sc(N)c(C#N)c45)c(F)c3n2)C1` (single isomer, unassigned) [Example 325-1], in series [1], the “Tumor volume (mm3) (Day 21)” value is 228 mm3 and the “TGI (%)” value turned out to be 91%. Moreover, half-maximal inhibition in series [2] (IC50) was put at 2 nM.
For the molecule `[2H]C([2H])([2H])N1CC/C(=C\F)[C@](C)(COc2nc(N3C[C@H]4CC[C@@H](C3)N4)c3cnc(-c4cc(O)cc5ccc(F)c(C#C)c45)c(F)c3n2)C1` [Example 306, 4-(4-((1R,5S)-3,8-diazabicyclo[3.2.1]octan-3-yl)-8-fluoro-2-(((S,E)-4-(fluoromethylene)-3-methyl-1-(methyl-d3)piperidin-3-yl)methoxy)pyrido[4,3-d]pyrimidin-7-yl)-5-ethynyl-6-fluoronaphthalen-2-ol], in series [4], the AUC(0-inf) amounted to 801 ng·h/mL, the AUC(0-t) is 759 ng·h/mL and the half-life was 7.17 h. In addition, in series [2], the IC50 is 5 nM.
Regarding `C#Cc1c(F)ccc2cc(O)cc(-c3nc(OC)c4c(N5C[C@H]6CC[C@@H](C5)N6)nc(OC[C@]5(C)CN(C)CC/C5=C\F)nc4c3F)c12` [Example 265, 4-(4-((1R,5S)-3,8-diazabicyclo[3.2.1]octan-3-yl)-8-fluoro-2-(((S,E)-4-(fluoromethylene)-1,3-dimethylpiperidin-3-yl)methoxy)-5-methoxypyrido[4,3-d]pyrimidin-7-yl)-5-ethynyl-6-fluoronaphthalen-2-ol], in series [3], the “Tumor volume (mm3) (Day 20)” value stood at 113 mm3 and the “TGI (%)” value came out at 106%. In series [2], this molecule returned an IC50 of 2 nM.
